Measurements taken from patent publication US7776572B2, “Method for reducing loss of enzyme activity during storage” (Corning Incorporated, priority 1996, dated 2010).

Key:
[1] = tested on: MDCK cells; experiment: MDCK cell attachment to coated polystyrene 24-well plates; assay type: cell-based; conditions: coated PS 24-well, gamma sterilized, media with 5% FBS, two days, visual
Experimental: (§1) The procedures used were as follows. Polystyrene 24-well plates were coated with the non-ionic surfactants listed in Table 5 in accordance with the procedures described in Materials and Methods. Uncoated plates were used as a control. For comparison, plates with a covalently attached acrylamide coating (Corning Costar Catalog #2500) and with a stearic acid coating were also tested. The stearic acid coating was applied in the same manner as the non-ionic surfactants again using a 0.1% (w/v) solution.
(§2) The plates were gamma sterilized at 1.5 Mrad and then inoculated with 5.6×10^4 MDCK […] per well in 1 ml of complete media containing 5% FBS (Fetal Bovine Serum). Incubation was carried out at 37° C. in a 5% CO2 atmosphere for two days. The plates were fixed and stained, and cell attachment was noted. Following this, the wells were stained using the colloidal gold technique to detect bound protein. Only visual observations were made.
Experiments were also performed with cells suspended in serum. The cells used in these experiments were MDCK cells. The surfactants used were the same as used in Table 5. Again, reduced binding of the cells to surfaces treated with a non-ionic surfactant was observed.

[2] = tested on: bound protein; experiment: Colloidal gold staining of bound protein after MDCK culture in media containing 5% FBS, visual; conditions: colloidal gold after cell culture, visual observation
Experimental: as §1, §2

[3] = tested on: IgG (horse); experiment: IgG binding to 24-well plates, surfactant dried or not dried before H2O rinse, colloidal Au; conditions: 0.5% surfactant in H2O/isopropanol (90/10)
Experimental: Duplicate 24-well plates were prepared as follows. Individual wells were filled with 3 ml of non-ionic surfactants at 0.5% (weight/volume) in H2O/isopropanol (90/10 weight/volume).
The duplicate plates were incubated for 30 minutes at room temperature on a rocker table and then emptied. One plate was tapped out and then allowed to dry at room temperature in a hood. It was then rinsed 5× with dI H2O. The second plate was not allowed to dry, but instead was immediately rinsed 5× with H2O. The plates were then tested for protein binding by filling each well with 0.5 ml of IgG (horse) at 10 μg/ml in PBS buffer and incubating for 30 minutes on a rocker table at room temperature. The plates were then rinsed with dI H2O and stained overnight with colloidal Au.

[4] = tested on: GAM-IgG-HRP (goat-anti-mouse-IgG-horseradish peroxidase enzyme labeled antibody); experiment: Bound enzyme labeled antibody on strips exposed to aqueous surfactant, rinsed or not rinsed, ABTS readout; conditions: 0.1% surfactant in H2O/isopropanol (95/5), not dried
Experimental: Medium binding (catalog #2587) and high binding (catalog #2581) polystyrene 96-well plates (8-well strips) manufactured by Corning Costar were used as follows. […] Strips were incubated for 30 minutes at room temperature on a rocker table. Strips were then emptied and tapped out. […] Immediately following this procedure, each well was aliquoted 0.10 ml of GAM-IgG-HRP (goat-anti-mouse-IgG-horseradish peroxidase enzyme labeled antibody; Kirkegaard and Perry, Gaithersburg, Md., Catalog #074-1806) at 1.0 μg/ml in PBS buffer pH=7.4). Strips were incubated for one hour at room temperature on a rocker table. Strips were then rinsed 5× with PBS buffer containing 0.02% Tween-20 followed by post rinsing with H2O. […] Absorbance at 405 nm was measured on a Cambridge Technologies #7520 Plate Reader.

[5] = tested on: IgG; experiment: Coating durability using water washes, IgG binding by colloidal gold
Experimental: Polystyrene plates having 24 wells (Corning Costar #9447) were coated with these surfactants as described in Materials and Methods. Durability was tested by adding dI H2O to the wells of a test plate (3.0 mls/well), following which the plate was placed on a rocker table. […] The protein solution was incubated with the plate on a rocker table for 30 minutes at 23° C., following which the plate was H2O rinse 3× (3 mls each time). The colloidal gold staining procedure described above was used to reveal bound protein. The staining comprised an overnight incubation on a rocker table at 23° C., a dI H2O rinse, drying at room temperature, and reading at 550 nm.

[6] = tested on: BSA; experiment: Polymer blends molded into petri dishes, BSA binding by colloidal gold; conditions: blended at 5% into polypropylene; silver enhancer
Experimental: Low binding non-ionic surfactant molecules were blended at 5% (except as noted in Table 13) into a base polymer using a twin screw extruder, then injection molded into the shape of 35 mm petri dishes. Proteins tested were BSA and Fetal Bovine Serum (FBS). Protein binding was determined using a colloidal gold staining procedure as described above. In the case of the polypropylene and EVA blends, a silver enhancer was used (Sigma Chem. Co., St, Louis, Mo., Kit #SE-100).

[7] = tested on: Fetal Bovine Serum (FBS); experiment: Polymer blends molded into petri dishes, FBS protein binding by colloidal gold; conditions: blended at 5% into polypropylene; silver enhancer
[8] = tested on: IgG protein; experiment: In-mold coating of 24-well polystyrene plates, protein binding by colloidal gold staining; conditions: 1% isopropanol solution
Experimental: The in-mold coating aspects of the invention were tested by molding 24-well polystyrene plates. […] The 0.01% concentration was estimated to produce less than one monolayer of surfactant on the finished product, while the 0.1% concentration produced about 7 monolayers. The surfactant was applied to the mold using a Crown sprayer (Crown Industrial Products, Hebron, Ill.; Catalog #8011), which produces a sufficiently fine spray of droplets to uniformly coat the mold. The mold was sprayed before each part was made.

Compound	MDCK Attachment [1]	Visual Color Upon Protein Staining [2]	Absorbance (550 nm) Dried before H2O rinse ([3]; dried, then rinsed 5x)	Absorbance (550 nm) H2O rinsed before drying ([3]; not dried, rinsed 5x immediately)	Absorbance (405 nm) High Binding Polystyrene No Rinse ([4]; not rinsed)	Absorbance (405 nm) Medium Binding Polystyrene No Rinse ([4]; not rinsed)	Absorbance (405 nm) High Binding Polystyrene Rinsed ([4]; rinsed 5x with dI H2O)	Absorbance (405 nm) Medium Binding Polystyrene Rinsed ([4]; rinsed 5x with dI H2O)	Absorbance (550 nm) Initial ([5]; coated polystyrene, no water wash)	Absorbance (550 nm) 1 Time 1 hr 23° C. ([5]; dI H2O wash 1 time, 1 hr, 23° C.)	Absorbance (550 nm) 1 Time 24 hr 23° C. ([5]; dI H2O wash 1 time, 24 hr, 23° C.)	Absorbance (550 nm) 1 Time 24 hr 37° C. ([5]; dI H2O wash 1 time, 24 hr, 37° C.)	Absorbance (550 nm) 1 Time 24 hr 70° C. ([5]; dI H2O wash 1 time, 24 hr, 70° C.)	Absorbance (550 nm) 6 Times 30 min each 23° C. ([5]; dI H2O wash 6 times, 30 min each, 23° C.)	Bound Protein Absorbance (550 nm) BSA [6]	Bound Protein Absorbance (550 nm) FBS [7]	protein binding of in-mold coated part [8]
PEO(20) SORBITOL MONO-LAURATE	None	None	0.14-0.16	0.13-0.16	0.00	0.00	2.00	1.90	0.00	0.02	0.05	0.10	0.10	0.10	0.153	0.270	–
CCCCCCCCCCCCCCCCCC(=O)OCC(O)CO (centres unmarked) [GLYCEROL MONO-STEARATE]	–	–	–	–	–	–	–	–	–	–	–	–	–	–	–	–	low protein binding
